Consider 7 compounds from patent US20180230166A1 (Merck Sharp & Dohme Corp., priority 2015, published 2018).

pIC50: −log10 of the molar value.

Data set [1] addresses T1, endogenous CETP from serum (Homo sapiens, UniProt P11597).
T1 construct: yielding a concentration of approximately 15 nM endogenous CETP in the assay; from tissue; host or cells: human serum (95% of the assay volume)
T1 sequence (P11597 18-493): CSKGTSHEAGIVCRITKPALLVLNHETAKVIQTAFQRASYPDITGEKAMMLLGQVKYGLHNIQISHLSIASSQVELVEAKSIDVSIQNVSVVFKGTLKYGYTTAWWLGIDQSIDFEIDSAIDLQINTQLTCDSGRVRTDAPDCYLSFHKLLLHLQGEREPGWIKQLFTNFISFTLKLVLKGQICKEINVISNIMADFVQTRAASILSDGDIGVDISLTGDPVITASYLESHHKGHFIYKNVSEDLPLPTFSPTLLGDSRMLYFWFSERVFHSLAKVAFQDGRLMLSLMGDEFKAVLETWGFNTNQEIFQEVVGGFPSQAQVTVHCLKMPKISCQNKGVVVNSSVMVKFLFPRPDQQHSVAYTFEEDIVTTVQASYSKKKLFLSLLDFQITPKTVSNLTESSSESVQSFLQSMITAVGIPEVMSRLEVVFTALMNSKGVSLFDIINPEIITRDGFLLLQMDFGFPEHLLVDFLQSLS
The data set is described as follows: RTA assay in 95% human serum (95% RTA), CETP-catalyzed CE and TG transfer. To be noted: RTA assay in 95% human serum; read-out: IC50. The class given is biochemical. The procedure: Reagents and sources are: [3H] cholesteryl oleate (GE #TRK.886), [3H] Triolein (Perkin-Elmer NET-431), Butylated hydroxyl toluene (Aldrich, #D4740-4), DOPC (Sigma, #P6354), Sodium Bromide (Fisher scientific #S255-500), PEG 8000 (Fisher, #BP233-1), and human HDL (Intracel Corp #RP-036).
Both assays measure the transfer of [3H] cholesteryl oleate or [3H] triolein from exogenous LDL to HDL.
Radiolabeled donor particles are generated by first combining 100 μl of 200 μM butylated hydroxyl toluene in CHCl3, 216 μL of 21.57 mM DOPC in EtOH, and either 500 μCi [3H]-triolein (Perkin Elmer #NET-431) or 500 μCi [3H]-cholesteryl oleate (GE #TRK886) in a glass tube. Reagents are mixed, dried under nitrogen, and then resuspended in 2 mL of 50 mM Tris, 27 μM EDTA at pH 7.4. After a brief vortex, the solution is sonicated until clear and mixed with 20 mL of fresh human serum. The mixture is incubated overnight at 37° C. The [3H] labeled LDL substrate is separated at 1.063 g/ml density by sequential ultracentrifugal flotation in NaBr according to the method of Havel, Eder, et al., 1955, and Chapman, Goldstein, et al., 1981. Once isolated the particles are dialyzed 3× in CETP buffer (50 mM Tris, pH 7.4, 100 mM NaCl, 1 mM EDTA). Human HDL is purchased from Intracel and used as the acceptor particles.
Transfer assays are performed in a 96-well v-bottom polypropylene plate. […] 1 μL of each test compound diluted in DMSO is added to 47 μL of assay cocktail per well and incubated at 37° C. for 1 hour. To initiate the transfer reaction, 2 μL radiolabeled LDL is added. After an additional 60 min of incubation at 37° C., the transfer action is terminated by precipitation of LDL with an equal volume of 20% W/V PEG 8000. The plates are centrifuged at 2000 rpm for 30 minutes at 4° C. A 40 μL aliquot of the HDL-containing supernatant is transferred to a Packard Optiplate™ with 200 μL of MicroScint™ 20. After mixing, plates are counted by liquid scintillation. Counts present in the supernatant for blanks (wells containing only HDL acceptor, CETP buffer and DMSO) are subtracted from those containing test compounds and used to correct for non-specific transfer.
For the transfer assay using endogenous CETP from serum (95% RTA), the same procedure is used except that human serum is added such that a final concentration of serum of 95% of the total assay volume is achieved, yielding a concentration of approximately 15 nM endogenous CETP in the assay. This is then combined with HDL and CETP buffer and the reaction proceeds as above and is terminated as described.
Comparison of the counts of samples with inhibitors to an uninhibited (DMSO only) positive control yield a percent inhibition. A plot of percent inhibition vs. log of inhibitor concentration, fit to a Sigmoidal 4 parameter equation is used to calculate IC50.
Starting materials are commercially available or are made using known procedures or as shown below. The examples may be synthesized using the general schemes provided below. The data reported for the examples below were obtained using the RTA assay in 95% human serum. […] When compounds of Formula I are mentioned herein, such compounds include compounds defined generically by Formula I and also the specific examples disclosed herein.

The conditions of data set [2]: cited from earlier work.
For data set [3] the following is noted: Phase III outcomes trial, cited from earlier work.
For data set [4] the following is noted: torcetrapib and atorvastatin concomitantly, compared with atorvastatin alone; cited from earlier work.
[5] abbreviates: patients on anacetrapib with baseline statin therapy, compared with patients treated with just a statin.

The pIC50 is the negative decadic logarithm of the IC50, by convention in mol/L. Take `COc1cc(F)c(C(C)C)cc1-c1ccc(C(F)(F)F)cc1[C@@H]1CC[C@H]2[C@@H](c3cc(F)cc(C(F)(F)F)c3)CC(=O)N12` [Example 18, (1R,5S,7aS)-5-[4′-fluoro-2′-methoxy-5′-(1-methylethyl)-4-(trifluoromethyl)biphenyl-2-yl]-1-[3-fluoro-5-(trifluoromethyl)phenyl]hexahydro-3H-pyrrolizin-3-one]: the pIC50 in data set [1] is 5.57. Regarding `COc1ncc(-c2ccc(C(=O)O)cc2C)cc1-c1ccc(C(F)(F)F)cc1[C@@H]1CC[C@H]2[C@@H](c3cc(F)cc(C(F)(F)F)c3)CC(=O)N12` [Example 19, 4-{5-[2-{(3S,7R,7aS)-7-[3-fluoro-5-(trifluoromethyl)phenyl]-5-oxohexahydro-1H-pyrrolizin-3-yl}-4-(trifluoromethyl)phenyl]-6-methoxypyridin-3-yl}-3-methylbenzoic acid], the pIC50 in data set [1] was 5.54.

As to `COc1ccc(-c2ccc(C(=O)O)cc2C)cc1-c1ccc(C(F)(F)F)cc1[C@@H]1CC[C@H]2[C@@H](c3cc(F)cc(C(F)(F)F)c3)CC(=O)N12` [Example 20], the pIC50 in data set [1] is 5.33. Regarding `COc1ncc(-c2c(C)cc(C(=O)O)cc2C)cc1-c1ccc(C(F)(F)F)cc1[C@@H]1CC[C@H]2[C@@H](c3ccnc(C(F)(F)F)c3)CC(=O)N12` [Example 21, 4-{6-methoxy-5-[2-{(3S,7R,7aS)-5-oxo-7-[2-(trifluoromethyl)pyridin-4-yl]hexahydro-1H-pyrrolizin-3-yl}-4-(trifluoromethyl)phenyl]pyridin-3-yl}-3,5-dimethylbenzoic acid], the pIC50 in data set [1] is 5.54.

On to `COc1cc(F)c(C(C)C)cc1-c1ccc(C(F)(F)F)cc1CN1C(=O)O[C@H](c2cc(C(F)(F)F)cc(C(F)(F)F)c2)[C@@H]1C` [anacetrapib], for which, in data set [2] (setting [5]), the “decrease of LDL-C” value is on record as 40% and the “increase of HDL-C” value is 138%. In data set [2] (patients treated with anacetrapib, DEFINE trial), the increase in mortality result is “unlikely”. On to `CCC(CC)CC1(C(=O)Nc2ccccc2SC(=O)C(C)C)CCCCC1` [dalcetrapib], for which the “clinical benefit (interim data)” value in data set [3] (terminated early) was “did not show a clinical benefit”. For the same compound, the safety issues entry in data set [3] is “no safety issues detected”.

For the compound `CCOC(=O)N1c2ccc(C(F)(F)F)cc2[C@@H](N(Cc2cc(C(F)(F)F)cc(C(F)(F)F)c2)C(=O)OC)C[C@H]1CC` [torcetrapib], the incidence of mortality entry in data set [4] is reported as “higher incidence of mortality”.
